The results in this text go back to PMC12226389, “Icariin interacts with IGFBP3 to alleviate diabetic cataract through PI3K/AKT signaling pathway” (iScience, 2025).

This experiment deals with T1, IGFBP3 (Homo sapiens, UniProt P17936).
T1 construct: protein immobilised on CM5 chip
The experiment is described as follows: SPR (Biacore T200, CM5 chip, immobilised IGFBP3). The class given is binding. In general terms: SPR reads the build-up and loss of mass on a sensor chip optically.

T1 sequence (P17936 28-291): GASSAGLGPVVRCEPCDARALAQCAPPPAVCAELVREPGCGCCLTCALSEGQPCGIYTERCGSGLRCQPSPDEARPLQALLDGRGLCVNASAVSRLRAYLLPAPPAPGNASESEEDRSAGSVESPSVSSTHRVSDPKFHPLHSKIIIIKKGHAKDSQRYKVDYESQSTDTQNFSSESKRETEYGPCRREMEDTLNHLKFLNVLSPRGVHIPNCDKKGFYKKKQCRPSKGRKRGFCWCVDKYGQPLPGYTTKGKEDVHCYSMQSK

As for `COc1ccc(-c2oc3c(CC=C(C)C)c(O[C@@H]4O[C@H](CO)[C@@H](O)[C@H](O)[C@H]4O)cc(O)c3c(=O)c2O[C@@H]2O[C@@H](C)[C@H](O)[C@@H](O)[C@H]2O)cc1` [Icariin], the Kd (usually the concentration at which binding is half-saturated) was determined as 131 µM.
